# Experimental data as given in patent US20160058735A1, “METHODS OF TREATING HYPERHIDROSIS” (Dermira, Inc., priority 2014, published 2016).
# Assays:
# [1] = tested on: patients with severe primary axillary hyperhidrosis; assay: Phase 2a clinical trial: disease severity by Hyperhidrosis Disease Severity Scale (HDSS); type: in vivo, human; conditions: Formulation A, 2% and 4% pooled; first on-treatment assessment, about one week
# Protocol: (§1) The completed Phase 2a clinical trial was a randomized, double-blind study in 38 patients with severe primary axillary hyperhidrosis.
# (§2) Patients were instructed to apply the study product once daily for four weeks using wipes saturated with either the topical formulation of the reference agent or vehicle only. Efficacy was evaluated based on axillary sweat production and disease severity. Assessments were conducted approximately weekly during the four-week treatment period and two weeks after the end of this treatment period. Disease severity was measured using a widely-used patient-reported outcome tool called the Hyperhidrosis Disease Severity Scale, or HDSS, wherein patients rate the severity of their disease on a four-point scale. Patients who rate the severity of their disease as a three or a four on the HDSS are considered to have severe disease, while those who rate it as one or two are considered to have mild or moderate disease. All 38 patients enrolled in the clinical trial rated the severity of their disease as a three or a four on the HDSS prior to the start of treatment. Trial inclusion criteria required that prior to the start of treatment, all patients produce at least 50 mg of sweat in each axilla over a five-minute period.
# [2] = tested on: patients with severe primary axillary hyperhidrosis; assay: Phase 2a clinical trial: axillary sweat production; type: in vivo, human
# Protocol: as §1
# as §2, with “Efficacy” for “Patients were instructed to apply the study product once daily for four weeks using wipes saturated with either the topical formulation of the reference agent or vehicle only. Efficacy”, “All 38 patients enrolled in the clinical trial rated the severity of their disease as a three or a four on the HDSS prior to the start of treatment.” left out
# [3] = tested on: patients with severe primary axillary hyperhidrosis; assay: Study DRM04-HH01 (Phase 2b): adverse events
# Protocol: Assessments were conducted approximately weekly during the four-week treatment period and the two-week period after the end of this treatment period. […] Trial inclusion criteria required that prior to the start of treatment, all patients produce at least 50 mg of sweat in each axilla over a five-minute period.
smiles,measurement,setting,value
"C[N+]1(C)CCC(OC(=O)C(O)(c2ccccc2)C2CCCC2)C1.[Br-] (stereo not drawn) [reference agent, threo-glycopyrronium bromide]",patients reporting improvement in disease severity (HDSS) from severe to mild or moderate,[1],Nine of 12
same,sweat production on average lower than at the start of therapy,"[2]; Formulation A, nine patients, end of four-week treatment period",61%
same,reversibility of effect on sweating and disease severity,[2]; two weeks following cessation of therapy,appeared to be reversible
same,patients who withdrew from the study due to adverse events,[3]; 1% cohort,2.6%
same,patients who withdrew from the study due to adverse events,[3]; 2% cohort,5.0%
same,patients who withdrew from the study due to adverse events,[3]; 3% cohort,2.5%
same,patients who withdrew from the study due to adverse events,[3]; 4% cohort,20.0%
same,most common TEAEs,[3]; in vivo,"dry mouth, upper respiratory tract infection, dry skin and blurred vision"
same,treatment-related serious adverse events,[3]; in vivo,No treatment-related serious adverse events were reported
